{"source": "patent US20200003756A1", "about": "“METHOD FOR OBSERVING SEBACEOUS GLAND” (MANDOM CORPORATION, priority 2017, published 2020)", "test_system": "sebaceous-gland-structure A", "test": "Classification of the state of lipid droplets in cells of the outermost layer of the sebaceous gland after suspension culture (Example 1)", "format": "cell-based", "parameters": "key to State of lipid droplet in cell contained in outermost layer of sebaceous gland FIG. 6(A) / State of lipid droplet in cell contained in outermost layer of sebaceous gland FIG. 6(B) / State of lipid droplet in cell contained in outermost layer of sebaceous gland FIG. 6(C) / State of lipid droplet in cell contained in outermost layer of sebaceous gland FIG. 6(D) / State of lipid droplet in cell contained in outermost layer of sebaceous gland FIG. 6(E) / State of lipid droplet in cell contained in outermost layer of sebaceous gland FIG. 6(F) / State of lipid droplet in cell contained in outermost layer of sebaceous gland FIG. 6(G): “◯ (open circle)” shows that a given state shown in FIG. 6 was observed; —: “-” shows that the given state shown in FIG. 6 was not observed", "settings": "for State of lipid droplet in cell contained in outermost layer of sebaceous gland FIG. 6(A): (A) No lipid droplet is found in the cell; for State of lipid droplet in cell contained in outermost layer of sebaceous gland FIG. 6(B): (B) A few lipid droplets are found in the cell; for State of lipid droplet in cell contained in outermost layer of sebaceous gland FIG. 6(C): (C) There is a space of lipid droplets in the cell; for State of lipid droplet in cell contained in outermost layer of sebaceous gland FIG. 6(D): (D) Lipid droplets start erosion of the nucleus; for State of lipid droplet in cell contained in outermost layer of sebaceous gland FIG. 6(E): (E) Lipid droplets start being connected to each other; for State of lipid droplet in cell contained in outermost layer of sebaceous gland FIG. 6(F): (F) The cell is fully occupied by lipid droplets; for State of lipid droplet in cell contained in outermost layer of sebaceous gland FIG. 6(G): (G) The cell is disappeared", "excerpt": "Under a stereoscopic microscope, a subcutaneous tissue was removed from a skin tissue by using scissors. Next, collagenous fibers were removed from the dermis in the skin tissue by using scissors and tweezers after removing the subcutaneous tissue, to obtain a sebaceous-gland-structure in which a sebaceous gland was exposed (hereinafter referred to as “sebaceous-gland-structure A”). […] In the sebaceous-gland-structure A, a sebaceous gland was exposed.\nThe sebaceous-gland-structure A obtained in Preparation Example 6 was immersed in a 4% by mass PFA-containing PBS solution at 4° C. for 30 minutes to fix the sebaceous-gland-structure A, thereby giving a fixed sample. The resulting fixed sample was washed by incubating the sample in a 2% by mass BSA-containing PBSTT solution at 4° C. for 1 hour. Washing was carried out three times.\nThe fixed sample after the washing was incubated in the primary antibody-containing solution obtained in Preparation Example 2 at 4° C. for 24 hours. The fixed sample after the incubation was washed by incubating the fixed sample in a […] by mass BSA-containing PBSTT solution at 4° C. for 1 hour. Washing was carried out three times.\nThe fixed sample after the washing was incubated in the staining reagent A obtained in Preparation Example 3 at 4° C. for 12 hours, to stain the sebaceous gland basal cell and the nucleus present in the outermost layer of the sebaceous gland. The stained fixed sample was washed by incubating the sample in a 2% by mass BSA-containing PBSTT solution at 4° C. for 1 hour. Washing was carried out three times.\nThe fixed sample after the washing was incubated in the staining reagent B obtained in Preparation Example 4 at room temperature (25° C.) for 30 minutes, to stain the sebum contained in the sebaceous-gland-structure A. The stained fixed sample was washed by incubating the sample in a 2% by mass BSA-containing PBSTT solution at 4° C. for 1 hour. Washing was carried out three times.\nThe fixed sample after the washing was subjected to incubation in a 20% by mass glycerol-containing PBS solution at 4° C. for 1 hour, incubation in a 50% by mass glycerol-containing PBS solution at 4° C. for 1 hour, and incubation in a 80% by mass glycerol-containing PBS solution at 4° C. for 1 hour, to substitute the moisture contained in the fixed sample with glycerol.\nAn appropriate amount (for example, 50 μL) of an 80 by mass aqueous glycerol solution was added to a region surrounded by the spaced contained in the spacer-attached coverslip obtained in Preparation Example 5. Next, the glycerol-substituted sebaceous-gland-structure A was placed on the region surrounded by the spacer contained in the spacer-attached coverslip so that the side of the sebaceous gland was directed downwards. Thereafter, the region surrounded by the spacer contained in the spacer-attached coverslip was covered with a round-shaped coverslip (diameter: 12 mm), to obtain an observation sample.\nLinoleic acid was added to the mixed medium obtained in Preparation Example 1 (hereinafter also referred to as “test sample A”) so that the concentration of linoleic acid was 1×10^−4 M, to obtain a test sample B. In addition, linoleic acid was added to the mixed medium obtained in Preparation Example 1 so that the concentration of linoleic acid was 1×10^−3 M, to obtain a test sample C.\nOne milliliter of the test sample A was added to each well of a 24-well plate. Next, the sebaceous-gland-structure A obtained in Preparation Example 6 was cultured in a suspended state in the test sample A contained in each well of the 24-well plate in the presence of 5% by volume carbon dioxide at 37° C. for 24 hours, to contact the sebaceous-gland-structure A with the test sample A (Experiment number 1). In addition, the sebaceous-gland-structure A was contacted with the test sample A in the same manner as in Experiment number 1 except that in Experiment number 1, 48-hour culture was carried out in place of 24-hour culture (Experiment number 2). […]", "key": {"[1]": {"settings": "linoleic acid 1 × 10^−3 M, culture 24 h (Experiment 5)"}, "[2]": {"settings": "linoleic acid 1 × 10^−3 M, culture 48 h (Experiment 6)"}, "[3]": {"settings": "linoleic acid 1 × 10^−4 M, culture 24 h (Experiment 3)"}, "[4]": {"settings": "linoleic acid 1 × 10^−4 M, culture 48 h (Experiment 4)"}}}
{"smiles": "CCCCC/C=C\\C/C=C\\CCCCCCCC(=O)O", "note": "[linoleic acid, Linoleic acid]", "values": [{"measurement": "State of lipid droplet in cell contained in outermost layer of sebaceous gland FIG. 6(A)", "setting": "[1]", "result": "◯"}, {"measurement": "State of lipid droplet in cell contained in outermost layer of sebaceous gland FIG. 6(B)", "setting": "[1]", "result": "◯"}, {"measurement": "State of lipid droplet in cell contained in outermost layer of sebaceous gland FIG. 6(C)", "setting": "[1]", "result": "◯"}, {"measurement": "State of lipid droplet in cell contained in outermost layer of sebaceous gland FIG. 6(D)", "setting": "[1]", "result": "◯"}, {"measurement": "State of lipid droplet in cell contained in outermost layer of sebaceous gland FIG. 6(E)", "setting": "[1]", "result": "◯"}, {"measurement": "State of lipid droplet in cell contained in outermost layer of sebaceous gland FIG. 6(F)", "setting": "[1]", "result": "—"}, {"measurement": "State of lipid droplet in cell contained in outermost layer of sebaceous gland FIG. 6(G)", "setting": "[1]", "result": "◯"}, {"measurement": "State of lipid droplet in cell contained in outermost layer of sebaceous gland FIG. 6(A)", "setting": "[2]", "result": "◯"}, {"measurement": "State of lipid droplet in cell contained in outermost layer of sebaceous gland FIG. 6(B)", "setting": "[2]", "result": "◯"}, {"measurement": "State of lipid droplet in cell contained in outermost layer of sebaceous gland FIG. 6(C)", "setting": "[2]", "result": "◯"}, {"measurement": "State of lipid droplet in cell contained in outermost layer of sebaceous gland FIG. 6(D)", "setting": "[2]", "result": "◯"}, {"measurement": "State of lipid droplet in cell contained in outermost layer of sebaceous gland FIG. 6(E)", "setting": "[2]", "result": "◯"}, {"measurement": "State of lipid droplet in cell contained in outermost layer of sebaceous gland FIG. 6(F)", "setting": "[2]", "result": "◯"}, {"measurement": "State of lipid droplet in cell contained in outermost layer of sebaceous gland FIG. 6(G)", "setting": "[2]", "result": "◯"}, {"measurement": "number of cells progressing sebum production (tendency from Table 2)", "setting": "linoleic acid 1×10^−4 M and 1×10^−3 M, culture 24 h and 48 h", "result": "the higher the linoleic acid concentration in the test sample is and the longer the culture time is, the larger the number of cells progressing sebum production is"}, {"measurement": "State of lipid droplet in cell contained in outermost layer of sebaceous gland FIG. 6(A)", "setting": "[3]", "result": "◯"}, {"measurement": "State of lipid droplet in cell contained in outermost layer of sebaceous gland FIG. 6(B)", "setting": "[3]", "result": "◯"}, {"measurement": "State of lipid droplet in cell contained in outermost layer of sebaceous gland FIG. 6(C)", "setting": "[3]", "result": "—"}, {"measurement": "State of lipid droplet in cell contained in outermost layer of sebaceous gland FIG. 6(D)", "setting": "[3]", "result": "—"}, {"measurement": "State of lipid droplet in cell contained in outermost layer of sebaceous gland FIG. 6(E)", "setting": "[3]", "result": "—"}, {"measurement": "State of lipid droplet in cell contained in outermost layer of sebaceous gland FIG. 6(F)", "setting": "[3]", "result": "—"}, {"measurement": "State of lipid droplet in cell contained in outermost layer of sebaceous gland FIG. 6(G)", "setting": "[3]", "result": "—"}, {"measurement": "State of lipid droplet in cell contained in outermost layer of sebaceous gland FIG. 6(A)", "setting": "[4]", "result": "◯"}, {"measurement": "State of lipid droplet in cell contained in outermost layer of sebaceous gland FIG. 6(B)", "setting": "[4]", "result": "◯"}, {"measurement": "State of lipid droplet in cell contained in outermost layer of sebaceous gland FIG. 6(C)", "setting": "[4]", "result": "◯"}, {"measurement": "State of lipid droplet in cell contained in outermost layer of sebaceous gland FIG. 6(D)", "setting": "[4]", "result": "—"}, {"measurement": "State of lipid droplet in cell contained in outermost layer of sebaceous gland FIG. 6(E)", "setting": "[4]", "result": "—"}, {"measurement": "State of lipid droplet in cell contained in outermost layer of sebaceous gland FIG. 6(F)", "setting": "[4]", "result": "—"}, {"measurement": "State of lipid droplet in cell contained in outermost layer of sebaceous gland FIG. 6(G)", "setting": "[4]", "result": "—"}]}
